Results published in patent US11484576B2, “Methods of promoting corticospinal neuronal outgrowth in neuronal lesions using a pro-regenerative human osteopontin fragment” (THE CHILDREN'S MEDICAL CENTER CORPORATION, priority 2017, dated 2022).

Columns and labels:
[1] = tested on: mice with T10 lateral hemisection; assay: Irregular ladder walking after spinal cord T10 lateral hemisection; format: in vivo, mouse; details: OPN/IGF1 treated group, T10 hemisection
Experimental: (§1) Injury Models. […] Briefly, a midline incision was made over the thoracic vertebrae, followed by a T10 laminectomy. The unilateral hemisection was then performed carefully using both scalpel and micro-scissors, avoiding, to the greatest extent, the damage of the spinal cord dura. The muscle layers were then sutured and the skin was secured with wound clips. All mice received post hoc histological analysis and those with spared CST axons (incomplete lateral hemisection) or with significant less CST axons on the contra-lesional side (over lateral hemisection) at the lumbar spinal cord (L3), exemplified in FIG. 9A, were excluded for behavioral analysis.
Virus and Protein Injection.
Irregular Ladder Walking. […] Briefly, the ladder was elevated 30 cm above the ground. […] To prevent animals from learning the pattern, the irregular pattern was changed from trial to trial. All trials were video recorded (Hotshot e64, 100 fps) and paw placement was analyzed twice by blinded observers. Steps with precise placement of the center of the palm on the rung (for both forelimbs and hindlimbs) and digits closed (for forelimbs) were defined as correct steps (hit). All other steps were recorded as errors, which included two types: 1) Miss: when crossing the ladder, the forelimb/hindlimb either completely miss the rung or contact the rung with the wrist/heel instead of the paw; 2) Slip: when crossing the ladder, the mice use a few digits instead of the paw to place on the rungs, causing the subsequent slip on the rungs. The results were expressed as both percentage of total errors and percentage of different placement categories (hit, miss and slip).
(§2) Pharmacological Treatment. […] All behavioral tests were then accomplished between 1-3 hours post administration.

[2] = tested on: mice with T10 lateral hemisection; assay: Ground walking and treadmill walking after T10 lateral hemisection; format: in vivo, mouse; details: i.p.
Experimental: as §1, §2

[3] = tested on: mice with unilateral photothrombotic stroke; assay: Single pellet retrieval and irregular ladder walking after unilateral photothrombotic cortical stroke; format: in vivo, mouse; details: ischemic mice treated with OPN/IGF1
Text: The procedure of unilateral photothrombotic stroke was similar to that described elsewhere (Watson et al., 1985; Wahl et al., 2014). Briefly, mice were fixed in a stereotactic frame, with the skull exposed. To unilaterally cover the sensoromotor cortex, the cold light source (Zeiss, CL 1500HAL, 3000K) was positioned over an opaque template with an opening (a circle with a diameter of 2.5 mm) centered at (−0.5, 2.0 mm, anterior and lateral to the bregma) on the cortex contralateral to the preferred paw in the food pellet retrieval task. […] Lesion volumes were calculated when mice brains were fixed at the end point of the experiments.
Irregular Ladder Walking. […] All trials were video recorded (Hotshot e64, 100 fps) and paw placement was analyzed twice by blinded observers. […] All other steps were recorded as errors, which included two types: 1) Miss: when crossing the ladder, the forelimb/hindlimb either completely miss the rung or contact the rung with the wrist/heel instead of the paw; 2) Slip: when crossing the ladder, the mice use a few digits instead of the paw to place on the rungs, causing the subsequent slip on the rungs. The results were expressed as both percentage of total errors and percentage of different placement categories (hit, miss and slip).
Single pellet Retrieval. […] The success rate was calculated as: number of successful retrievals/total attempts per trail *100. […]

injured mice = assay: Adverse effects of systemic potassium channel blockers in injured mice; format: in vivo; details: injured mice treated with OPN/IGF1
Experimental: Chemicals and Antibodies. For systematic administration (i.p.), Quipazine [Sigma (Q1004), 0.2 mg/kg), SKF-82197 [Tocris (1447) 0.1 mg/kg], and 8-OH-DPAT [Tocris (0529), 0.1 mg/kg), 4AP [Sigma (275875), 1 mg/kg, 3 mg/kg), 4AP-MeOH [Santa Cruz (sc-267247), (1 mg/kg)] were dissolved in saline. Tamoxifen (Sigma, 10540-29-1) was dissolved in oil. For diphtheria toxin mediated cell ablation, we purchased the diptheria toxin from Sigma (D0564). For immunostaining, the primary antibody used were chicken anti-GFP [Abcam (Cat: ab13970)], rabbit anti-RFP [Abcam (Cat: ab34771)], rabbit anti-PKCγ [Santa Cruz (sc211)], rabbit anti-GFAP [DAKO (Z0334)]; rabbit anti-5-HT [Immunostar (20080)], rabbit-anti-IGFR [Santa Cruz (sc-712)] rabbit-anti-pIGFR[3 [Cell signaling technology (3024)], rabbit-anti-pS6 [Cell signaling technology (4857)], rat anti-CD68 [Bio-Rad (MCA 1957)], and Guinea pig-anti-Vglut1 [Synaptic Systems (135304)].
Pharmacological Treatment. […] A pilot experiment was performed and determined that 4AP (1 mg/kg, 3 mg/kg) and 4AP-MeOH (1 mg/kg) achieved their maximal effects within 1-3 hours post systematic administration (i.p.). […]

Nc1ccncc1CO [4-AP-MeOH, 4-aminopyridine-3-methanol]
error rate, irregular ladder walking, after 4-AP-MeOH ([1]; 1 mg/kg i.p.): 30% | error rate, irregular ladder walking, before 4-AP-MeOH [1]: about 48% | recovery of treadmill walking performance compared to the control [2]: neither 4-AP nor 4-AP-MeOH had significant effects | additional effect on single pellet retrieval and irregular ladder walking [3]: further improvements on both assays | effect and safety compared to 4-AP (injured mice): significantly better effects with broader safety doses
